Literature values in PMC6854850 (MicrobiologyOpen, 2019).

Target: T1, OmpP (Escherichia coli, UniProt P34210)
T1 sequence (P34210 24-315): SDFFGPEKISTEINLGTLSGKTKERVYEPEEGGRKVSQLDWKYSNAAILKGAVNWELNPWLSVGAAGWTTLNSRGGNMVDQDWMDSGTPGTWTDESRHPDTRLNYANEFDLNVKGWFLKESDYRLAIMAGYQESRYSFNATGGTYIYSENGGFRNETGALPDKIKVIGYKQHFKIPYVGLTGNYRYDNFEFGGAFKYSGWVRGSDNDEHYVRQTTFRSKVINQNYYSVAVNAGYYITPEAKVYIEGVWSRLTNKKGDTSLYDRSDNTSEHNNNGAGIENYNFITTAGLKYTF
Conditions: ref Hwang et al., 2007

cleavage of AMP by OmpP, in words: has been shown to cleave
Substance: protamine
